In one series the test system is mosquitoes. The following applies: absence of body odor attractants such as 1-octen-3-ol, lactic acid, or carbon dioxide; cited from earlier work.
In the next series the test system is acetylcholinesterase. Conditions: insects and mammals; cited from earlier work.
The conditions of series [1]: reported by US EPA; cited from earlier work.
The test system of another series is drosophila. Description: Tests in vivo on drosophila: two-tube repellency test, Repulsive Index. Details: key to RI against drosophila (FIG. 1) / RI (FIG. 2 and 3): RI = (N1−N2)/(N1+N2); N1 solvent tube, N2 compound tube. The following applies: concentration not given. On the procedure: Description of Test system. To evaluate repellent efficacy, compounds were added to test chambers, each containing 40 drosophila. The test was performed in 3 phases: 1) fast (flies aspirated to test tubes); 2) implementation of the system (addition of filter paper, addition of solvent containing test compound); and 3) counting of the flies (after 22 hours exposure to test compound). The number of drosophila in each tube were counted: number of flies in the “filter paper+Solvent” tube was designated N1 and the number of flies in the “filter paper impregnated with test compound” was designated N2.
The Repulsive Index (R1) is given by the following equation: (N1−N2)/(N1+N2).

For `CCN(CC)C(=O)c1cccc(C)c1` [DEET, N,N-Diethyl-meta-toluamide], the “repellent activity in behavioral test, in words” value in the series with mosquitoes is listed as “strong repellent activity”. For the same molecule, the “activity on acetylcholinesterase, in words” value in the series on acetylcholinesterase is on record as “inhibit the activity”. Besides, the “deaths among the potential DEET-associated seizure cases” value in series [1] was 4 deaths. For the same molecule, in the series with drosophila, the “RI against drosophila (FIG. 1)” value is above 0.9.

The values above are taken from patent US20120329832A1, “Novel Insect-Repellent Coumarin Derivatives, Syntheses, and Methods of Use” (priority 2011, published 2012).
